Measurements reported in US20100041621A1, “METHODS AND COMPOSITIONS FOR IMPROVING COGNITIVE PERFORMANCE” (priority 2008, published 2010).

Tests used:
[1] = test system: anterior cingulate cortex (ACC); assay: 31P MRSI (3D-CSI, 4 Tesla) of phosphorus metabolites in the anterior cingulate cortex after six weeks of oral citicoline; format: in vivo, human; settings: 6 weeks, doses pooled, mean ± SD
Description: (§1) ^31P data were collected using a three-dimensional chemical shift imaging (3D-CSI) technique at 4 Tesla in healthy middle-aged individuals. The use of 3D-CSI at high field has several advantages over previous methods: 1) increased spectral dispersion, which allows for increased precision of metabolite quantification; 2) post-processing grid shifting that allows for 3D placement of voxels of interest; and 3) the ability to co-register voxel placement between baseline and post-treatment follow-up. High-energy metabolite peaks quantified in the present study include phosphocreatine (PCr), β-nucleoside triphosphate (NTP, ATP in brain), and inorganic phosphate (Pi). Phospholipid membrane metabolite peaks quantified include anabolites, phosphomonoesters (PME), including phosphoethanolamine (PE) and phosphocholine (PC), and catabolites, phosphodiesters (PDE), including glycerophosphoethanolamine (GPE) and glycerolphosphocholine (GPC). A region of interest approach was used to examine phosphorus metabolite levels in the anterior cingulate cortex (ACC), given the notable age-related decline in frontal brain metabolism and impairment of frontally-mediated cognitive functions. A comparison region placed in the parieto-occipital cortex (POC) was also evaluated. It was hypothesized that oral supplementation with citicoline would improve frontal bioenergetic metabolism via elevations in availability of high-energy phosphates, as well as alteration of membrane phospholipid turnover by providing additional membrane precursors.
(§2) Subjects included sixteen neurologically and psychiatrically healthy adults (mean age=47.3±5.4 years; 8 females, 8 males). Trained research technicians administered a structured clinical psychiatric interview using the Structured Clinical Interview for DSM-IV (SCID). All subjects were free of Axis I diagnoses, neurological illness, severe medical problems, and psychoactive substance use.
(§3) Subjects were randomly assigned to receive a six-week supply of either 500 mg (4 males and 4 females) or 2000 mg (4 males and 4 females) of Cognizin® Citicoline (Kyowa Hakko Kogyo Co., Ltd., JAPAN). Subjects were instructed to take one capsule every day (500 mg group) or four capsules every day in a single dose (2000 mg group) for six weeks. […] Magnetic resonance spectroscopy (MRS) was completed on all subjects in two imaging sessions: one prior to beginning treatment (baseline) and one after completing six weeks of treatment.
(§4) All proton imaging was performed using the proton channel of the dual tuned open face proton-phosphorus TEM whole-head coil from Bioengineering Inc. (Minneapolis, Minn.) operating at a nominal frequency of 170.3 MHz. A 2D gradient-recalled echo imaging sequence (12 seconds duration) was used to acquire a single image in all three spatial dimensions (sagittal, coronal, axial) to quickly determine the patient's position and angle. High-contrast, T1-weighted sagittal, coronal images as well as T1 and T2-weighted transverse images of the entire brain were acquired using a three-dimensional, magnetization-prepared FLASH imaging sequence (3D-MP FLASH), allowing for clear segmentation between grey-matter, white-matter, and CSF, as well as clearly delineating between the different anatomical regions of interest. This approach was used to optimize […] voxel positioning, and volumetric correction in the regions of interest.
(§5) Phosphorus MRSI was performed using the phosphorus channel of the dual tuned proton-phosphorus TEM whole-head coil from Bioengineering Inc. (Minneapolis, Minn.) operating at 68.9 MHz. Phosphorus MRSI data were recorded using a three-dimensional chemical shift imaging (3D-CSI) sequence (Garraux, Neuroimage 10:149-162, 1999). […]

[2] = test system: axial brain slice through the frontal and occipital cortices; settings: elderly subjects (69.4±5.6 years), 6 weeks of treatment, 1.5 Tesla; cited from earlier work
[3] = test system: parieto-occipital cortex (POC); assay: 31P MRSI (3D-CSI, 4 Tesla) of phosphorus metabolites in the parieto-occipital cortex (comparison region) after six weeks of oral citicoline; format: in vivo, human
Description: as §1, §2, §3, §4, §5

[4] = POC, six weeks, at either dose (500 or 2000 mg)

## C[N+](C)(C)CCOP(=O)(O)OP(=O)([O-])OC[C@H]1O[C@@H](n2ccc(N)nc2=O)[C@H](O)[C@@H]1O [citicoline, CDP-choline]
[1]; baseline .026 ± .010, p .02
  PC, metabolite ratio relative to total 31P signal: .019 ± .008
[1]; baseline .039 ± .010, p .01
  GPE, metabolite ratio relative to total 31P signal: .030 ± .009
[1]; baseline .043 ± .015, p .04
  PE, metabolite ratio relative to total 31P signal: .054 ± .008
[1]; baseline .051 ± .015, ns
  GPC, metabolite ratio relative to total 31P signal: .047 ± .016
[1]; baseline .066 ± .012, p .05
  β-NTP, metabolite ratio relative to total 31P signal: .075 ± .014
[1]; baseline .069 ± .016, ns
  PME, metabolite ratio relative to total 31P signal: .073 ± .012
[1]; baseline .073 ± .012, p .15
  Pi, metabolite ratio relative to total 31P signal: .065 ± .022
[2]
  change in phosphodiesters (PDE, phospholipid membrane catabolites): significant increase
[3]; POC region of interest, baseline vs six weeks
  change in phospholipid membrane metabolites: No significant changes
[3]; POC, 6 weeks, doses pooled, mean ± SD, baseline .023 ± .009, ns
  PC, metabolite ratio relative to total 31P signal: .026 ± .012
[3]; POC, 6 weeks, doses pooled, mean ± SD, baseline .034 ± .011, ns
  GPE, metabolite ratio relative to total 31P signal: .032 ± .014
[3]; POC, 6 weeks, doses pooled, mean ± SD, baseline .047 ± .017, ns
  GPC, metabolite ratio relative to total 31P signal: .047 ± .010
[3]; POC, 6 weeks, doses pooled, mean ± SD, baseline .063 ± .009, ns
  β-NTP, metabolite ratio relative to total 31P signal: .066 ± .010
[3]; POC, 6 weeks, doses pooled, mean ± SD, baseline .065 ± .009, ns
  PE, metabolite ratio relative to total 31P signal: .058 ± .010
[3]; POC, 6 weeks, doses pooled, mean ± SD, baseline .072 ± .010, ns
  Pi, metabolite ratio relative to total 31P signal: .075 ± .013
[3]; POC, 6 weeks, doses pooled, mean ± SD, baseline .088 ± .015, ns
  PME, metabolite ratio relative to total 31P signal: .084 ± .011
[3]; [4]
  change in PCr/Pi ratio: No changes
  change in Pi: No changes
